This note sets out measurements from PubChem BioAssay (NCI).

Among the test systems are HOP-62 NSCLC; K-562 leukemia; MALME-3M melanoma; NCI-H226 lung; NCI-H23 lung; NCI-H460 lung; OVCAR-5 ovarian; SNB-75 CNS; U251 CNS; UACC-62 melanoma.
Holding throughout (assay): NCI-60 cell line screen, 48 h

Several values for one entry are separate records, joined by “and”; a condition that tells them apart may be missing. Identical values can stand only once.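 How tested: cells in 96-well plates exposed to compound for 48 hours at five concentrations. GI50 = concentration required for 50% inhibition of growth. TGI is the concentration that stops growth completely.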

With `Nc1cccc2c1C(=O)N(C1CCC(=O)NC1=O)C2=O` (centres undefined), the GI50 in the assay on HOP-62 NSCLC, with K-562 leukemia, in the assay with MALME-3M melanoma, in the assay on NCI-H226 lung, in the assay on NCI-H23 lung and with NCI-H460 lung was greater than 100 µM each time. Further, the GI50 in the assay on OVCAR-5 ovarian, with SNB-75 CNS, with U251 CNS and in the assay on UACC-62 melanoma was greater than 100 µM each time. In addition, the TGI in the assay with HOP-62 NSCLC, in the assay with K-562 leukemia, in the assay on MALME-3M melanoma, in the assay with NCI-H226 lung, in the assay with NCI-H23 lung and in the assay on NCI-H460 lung was greater than 100 µM each time. Moreover, the TGI in the assay on OVCAR-5 ovarian, in the assay on SNB-75 CNS, in the assay with U251 CNS and with UACC-62 melanoma was greater than 100 µM in each case.

In the case of `N[C@H]1C2C3CC4C5CC(C42)C1(c1ccccc1)C53` (some centres undefined), the TGI in the assay with HOP-62 NSCLC, in the assay on K-562 leukemia, in the assay with MALME-3M melanoma, in the assay on NCI-H226 lung, in the assay with NCI-H23 lung and in the assay with NCI-H460 lung was greater than 100 µM in each case. Further, the TGI in the assay with OVCAR-5 ovarian, in the assay with SNB-75 CNS, in the assay with U251 CNS and with UACC-62 melanoma was greater than 100 µM in each case.

For `COc1cc(CCc2cc(NC(=O)c3ccc(N4C[C@@H](C)N[C@@H](C)C4)cc3)n[nH]2)cc(OC)c1`, the GI50 was > 10 µM and 7.2 µM in the assay with HOP-62 NSCLC; 6.89 µM and 4.18 µM in the assay with K-562 leukemia; 8.58 µM and 5.25 µM in the assay with MALME-3M melanoma; > 10 µM and 3.98 µM in the assay on NCI-H23 lung; 6.39 µM and 4.16 µM with NCI-H460 lung; > 10 µM and 5.01 µM in the assay with OVCAR-5 ovarian. Also, the GI50 in the assay with SNB-75 CNS is 1.93 µM and 2.61 µM; with U251 CNS it was > 10 µM and 3.86 µM; with UACC-62 melanoma, > 10 µM and 6.82 µM. The TGI was > 10 µM and 20.3 µM in the assay with HOP-62 NSCLC; > 10 µM and 15.8 µM with K-562 leukemia; > 10 µM and 19.9 µM in the assay on MALME-3M melanoma; > 10 µM and 21.3 µM in the assay on NCI-H226 lung; > 10 µM and 17.3 µM with NCI-H23 lung; > 10 µM and 14.8 µM with NCI-H460 lung. The TGI with OVCAR-5 ovarian was > 10 µM and 16.9 µM; in the assay on SNB-75 CNS, > 10 µM and 11.2 µM; in the assay with U251 CNS, > 10 µM and 18 µM; in the assay on UACC-62 melanoma, > 10 µM and 21.2 µM.

`O=S(=O)(O)CS(=O)(=O)OCCCl`: the TGI in the assay with HOP-62 NSCLC, in the assay with K-562 leukemia, in the assay on MALME-3M melanoma, with NCI-H226 lung, in the assay on NCI-H23 lung and in the assay on NCI-H460 lung was greater than 100 µM in each case. For the same molecule, the TGI with OVCAR-5 ovarian, with SNB-75 CNS, in the assay with U251 CNS and with UACC-62 melanoma was greater than 100 µM in each case.

`CCOC(=O)/C(C1=N[C@H](C(=O)OCC)CS1)=C(\C)O`: the TGI in the assay on HOP-62 NSCLC, with K-562 leukemia, in the assay with MALME-3M melanoma, in the assay on NCI-H226 lung, in the assay with NCI-H23 lung and in the assay with NCI-H460 lung was greater than 100 µM throughout. Further, the TGI in the assay on OVCAR-5 ovarian, in the assay on SNB-75 CNS, in the assay on U251 CNS and in the assay on UACC-62 melanoma was greater than 100 µM each time.

For the molecule `O=[N+]([O-])c1ccc(Sc2ncccn2)c([N+](=O)[O-])c1`, the GI50 in the assay with HOP-62 NSCLC was 15.1 µM; in the assay with K-562 leukemia it was 2.52 µM; in the assay with MALME-3M melanoma, 1.75 µM; with NCI-H226 lung it was 4.28 µM; in the assay on NCI-H23 lung it was 5.28 µM; in the assay on NCI-H460 lung, 6.78 µM. Also, the GI50 with OVCAR-5 ovarian is 7.35 µM; in the assay with SNB-75 CNS, 4.51 µM; in the assay on U251 CNS, 4.46 µM; in the assay with UACC-62 melanoma, 4.31 µM. In addition, the TGI came out at 30.1 µM in the assay with HOP-62 NSCLC; 12.1 µM in the assay with K-562 leukemia; 4.72 µM with MALME-3M melanoma; 18.2 µM in the assay on NCI-H226 lung; 19.1 µM in the assay on NCI-H23 lung; 24.1 µM with NCI-H460 lung. Besides, the TGI was 19.8 µM with OVCAR-5 ovarian, 17.6 µM in the assay with SNB-75 CNS, 15.3 µM with U251 CNS and 16.2 µM in the assay with UACC-62 melanoma.

With `O=C(Nc1ccncc1)C(=O)c1cn(S(=O)(=O)c2ccc(Br)cc2)c2ccccc12`, the GI50 in the assay on HOP-62 NSCLC is 3.67 µM; with K-562 leukemia, 2.49 µM; in the assay on MALME-3M melanoma, 24.2 µM; in the assay with NCI-H226 lung it was 20.9 µM; in the assay on NCI-H23 lung, 4.74 µM; in the assay on NCI-H460 lung it was 11.3 µM. In addition, the GI50 in the assay with OVCAR-5 ovarian is greater than 100 µM; in the assay on SNB-75 CNS it was 4 µM; in the assay on U251 CNS, 6.41 µM; with UACC-62 melanoma it was 3.79 µM. For the same molecule, the TGI in the assay with HOP-62 NSCLC is 38.7 µM; with K-562 leukemia, greater than 100 µM; with MALME-3M melanoma, greater than 100 µM; in the assay on NCI-H226 lung it was greater than 100 µM; in the assay on NCI-H23 lung, greater than 100 µM; with NCI-H460 lung it was greater than 100 µM. The TGI in the assay on OVCAR-5 ovarian is greater than 100 µM; in the assay with SNB-75 CNS it was 41.7 µM; in the assay with U251 CNS it was greater than 100 µM; with UACC-62 melanoma it was greater than 100 µM.

As for `CCOC(=O)C1C=C2O[C@@H]3OC4(CCCCC4)O[C@@H]3C2[C@H]2C(=O)C=CC(=O)[C@@]12C(=O)OC` (some centres undefined), the TGI in the assay on HOP-62 NSCLC is 36.3 µM; in the assay on K-562 leukemia, 34.2 µM; in the assay on MALME-3M melanoma, 31.2 µM; in the assay with NCI-H226 lung it was 36.4 µM; with NCI-H23 lung, 45.2 µM; with NCI-H460 lung, 33.4 µM. Also, the TGI in the assay with OVCAR-5 ovarian came to 31.7 µM; in the assay with SNB-75 CNS it was 35.4 µM; in the assay with U251 CNS, 21.5 µM; with UACC-62 melanoma it was 30.9 µM.

Turning to `CCCCCCCCCCCCCCCCCCNC(=O)[C@H]1CSC(c2ccc(OC)c(F)c2)N1` (some centres undefined), the GI50 with HOP-62 NSCLC was 2.16 µM; with K-562 leukemia, 2 µM; in the assay with MALME-3M melanoma it was greater than 26.2 µM; in the assay with NCI-H226 lung it was 2.28 µM; in the assay on NCI-H23 lung, 7.22 µM; in the assay with NCI-H460 lung, 0.606 µM. Besides, the GI50 in the assay with OVCAR-5 ovarian was 3.55 µM; with SNB-75 CNS it was 3.1 µM; with U251 CNS, 4.48 µM; with UACC-62 melanoma, 1.72 µM. Further, the TGI in the assay on HOP-62 NSCLC was 5.12 µM; in the assay with K-562 leukemia, 11.2 µM; with MALME-3M melanoma, greater than 45.5 µM; with NCI-H226 lung, 6.86 µM; in the assay with NCI-H23 lung, 27 µM; in the assay with NCI-H460 lung it was 2.02 µM. Moreover, the TGI in the assay on OVCAR-5 ovarian was greater than 33.4 µM; in the assay with SNB-75 CNS it was 14.1 µM; in the assay on U251 CNS, 22.9 µM; with UACC-62 melanoma, 3.82 µM.
